# Measured values: US20260098030A1, “NEGATIVE ALLOSTERIC MODULATORS OF METABOTROPIC GLUTAMATE RECEPTOR 2” (Vanderbilt University, priority 2022, published 2026)
# Biological target: T1, rat mGlu2 (Rattus norvegicus, UniProt P31421)
# T1 construct: expressed in transfected cells; host or cells: HEK-293 cells stably co-expressing GIRK channels
# Experiment: mGlu GIRK cell-based thallium flux assay, rat mGlu2
# Conditions: HEK-293 cells co-expressing rat mGlu2 and GIRK, EC80 glutamate
# Experimental: Human embryonic kidney (HEK-293) cell lines stably co-expressing human or rat mGlu2 and G protein-coupled inwardly rectifying potassium (GIRK) channels, or human mGlu3 and GIRK, were used for in vitro evaluation of compound activity in thallium flux assay using a fluorescent thallium indicator dye.
# The day before the assay, GIRK cells co-expressing human mGlu3, human or rat mGlu2, as described above, were plated in black-walled, clear-bottomed, amine-coated 384-well plates at a density of 15,000 cells/20 μL/well in the assay medium (glutamine-depleted basal DMEM supplemented with 10% dialyzed FBS, 20 mM HEPES, 1 mM sodium pyruvate). Cells were incubated at 37° C. in the presence of 5% CO2. The next day, assay buffer (Hanks balanced salt solution, 20 mM HEPES, 4.16 mM sodium bicarbonate, pH 7.2) was prepared to dilute compounds and Thallos AM fluorescent dye solution. The 2× Thallos dye solution (final concentration 0.34 μM to the cells) was prepared by mixing the dye stock (2.97 mM in DMSO) to 1:1 with 10% pluronic acid before adding to the assay buffer. Cells were washed with assay buffer using a microplate washer to remove the medium, resulting in 20 μL of buffer remaining in each well. Immediately, 20 μL of 2× Thallos dye solution was added to cells, and incubated for one hour at 25° C. During the cell dye loading incubation period, a 10-point concentration serial dilution of compound was created from a 10 mM DMSO compound stock by performing a 1:3 serial dilution in DMSO using the Bravo liquid handler. The 2× compound plate was generated by transferring 0.24 μL of the diluted compound in each well to a daughter plate using an Echo acoustic liquid handler. This is further diluted in 40 μL assay buffer, resulting in a range from 30 μM to 1.5 nM final concentration in the assay. The agonist plate (5×) was prepared to include EC80 glutamate concentration (a concentration to elicit 80% of a maximally effective glutamate concentration) in thallium buffer (125 mM […], 1 mM magnesium sulfate, 1.8 mM calcium sulfate, 5 mM glucose, 10 mM HEPES, pH 7.2, 12.5 mM thallium sulfate).
# After dye-loading, cell plates were washed with assay buffer to remove excess extracellular dye using a microplate washer, resulting in 20 μL of buffer remaining in each well. After a ten-minute equilibration period, cell, compound and agonist plates were loaded into a Hamamatsu μCell kinetic imaging plate reader equipped with liquid handler to monitor fluorescence changes at 480 nm excitation and 540 nm emission settings. Briefly, after collection of baseline fluorescence, 20 μL of compound was added and incubated for two minutes and twenty seconds. This is immediately followed by adding 10 μL of glutamate-thallium buffer to the wells containing compound. The fluorescent signal was monitored an additional 2.5 minutes after the glutamate addition. Multiple reference wells containing no compound received either no glutamate (for a baseline reference), EC80 glutamate, or ECmax glutamate (for normalization to maximum response). Fluorescence was measured throughout the experiment at a frequency of 1 measurement per every 2 seconds before the glutamate addition and a frequency of 1 measurement per every 1 second after the glutamate addition. Each compound concentration series occurred one time in each plate, and replicates from two or three plates were used in each experimental run. Thallium solutions were handled and disposed of according to guidelines from the Vanderbilt University Chemical Safety department.
# Data were normalized using a static ratio function (F/F0) by dividing every fluorescent measurement by the initial fluorescent value for the corresponding well. The increase in signal resulting from the glutamate/thallium addition of the second add was measured by determining the slope from 3 seconds to 13 seconds after the addition. […]
# T1 sequence (P31421 19-872): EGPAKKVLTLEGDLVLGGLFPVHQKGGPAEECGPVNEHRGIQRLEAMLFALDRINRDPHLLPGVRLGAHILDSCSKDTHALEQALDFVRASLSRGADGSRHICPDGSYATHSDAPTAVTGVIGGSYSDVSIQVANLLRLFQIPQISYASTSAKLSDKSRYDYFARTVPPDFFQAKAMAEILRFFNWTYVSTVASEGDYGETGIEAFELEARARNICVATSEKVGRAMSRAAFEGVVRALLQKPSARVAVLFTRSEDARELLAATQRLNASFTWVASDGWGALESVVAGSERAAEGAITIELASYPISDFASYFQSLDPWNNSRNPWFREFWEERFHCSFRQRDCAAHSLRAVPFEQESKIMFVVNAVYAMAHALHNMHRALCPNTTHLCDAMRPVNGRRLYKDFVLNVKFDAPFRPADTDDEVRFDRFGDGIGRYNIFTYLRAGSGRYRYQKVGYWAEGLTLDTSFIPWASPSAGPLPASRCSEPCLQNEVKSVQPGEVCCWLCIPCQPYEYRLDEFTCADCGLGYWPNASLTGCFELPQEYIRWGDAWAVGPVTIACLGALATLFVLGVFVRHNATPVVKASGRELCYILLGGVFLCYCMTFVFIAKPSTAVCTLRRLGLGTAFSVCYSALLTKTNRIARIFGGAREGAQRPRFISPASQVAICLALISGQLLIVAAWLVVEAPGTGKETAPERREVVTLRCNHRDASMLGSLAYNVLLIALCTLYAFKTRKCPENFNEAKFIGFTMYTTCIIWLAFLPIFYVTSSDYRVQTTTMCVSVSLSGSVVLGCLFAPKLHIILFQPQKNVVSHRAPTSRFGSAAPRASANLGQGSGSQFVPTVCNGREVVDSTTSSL
row,IC50,SMILES
1,> 10000 nM,"O=C1NCc2cc(-c3cccnc3N3CCCC3)c(-c3ccc(F)cc3F)cc21 [Compound 102, 6-(2,4-difluorophenyl)-5-(2-(pyrrolidin-1-yl)pyridin-3-yl)isoindolin-1-one]"
2,> 10000 nM,"O=C1NCc2cc(C3=CCNC3)c(-c3ccc(F)cc3)cc21 [Compound 82, 5-(2,5-dihydro-1H-pyrrol-3-yl)-6-(4-fluorophenyl)isoindolin-1-one]"
3,2250 nM,"O=C1NCc2cc(-c3ccc4cnccc4c3)c(-c3ccc(F)cc3)cc21 [Compound 14, 6-(4-fluorophenyl)-5-(isoquinolin-6-yl)isoindolin-1-one]"
4,> 10000 nM,"N#Cc1ccc(-c2cc3c(cc2-c2ccc(F)cc2)C(=O)NC3)cn1 [Compound 33, 5-(6-(4-fluorophenyl)-1-oxoisoindolin-5-yl)picolinonitrile]"
5,> 10000 nM,"CN1CCCC(c2cc3c(cc2-c2ccc(F)cc2)C(=O)NC3)C1 (stereo not drawn) [Compound 65, 6-(4-fluorophenyl)-5-(1-methylpiperidin-3-yl)isoindolin-1-one]"
6,2460 nM,"Cc1ccc(-c2cc3c(cc2-c2ccc(F)cc2)C(=O)NC3)cn1 [Compound 6, 6-(4-fluorophenyl)-5-(6-methylpyridin-3-yl)isoindolin-1-one]"
7,3810 nM,"O=C1NCc2cc(-c3cc(F)c4ncccc4c3F)c(-c3ccc(F)cc3)cc21 [Compound 21, 5-(5,8-difluoroquinolin-6-yl)-6-(4-fluorophenyl)isoindolin-1-one]"
8,4490 nM,"COc1cc(F)ccc1-c1cc2c(cc1-c1ccc(F)cc1F)C(=O)NC2 [Compound 105, 6-(2,4-difluorophenyl)-5-(4-fluoro-2-methoxyphenyl)isoindolin-1-one]"
9,> 10000 nM,"O=C1NCc2cc(-c3cccnc3)c(-c3ccc(F)cc3)cc21 [Compound 44, 6-(4-fluorophenyl)-5-(pyridin-3-yl)isoindolin-1-one]"
10,> 10000 nM,"O=C1NCc2cc(-c3cccnc3F)c(-c3ccc(F)cc3)cc21 [Compound 40, 6-(4-fluorophenyl)-5-(2-fluoropyridin-3-yl)isoindolin-1-one]"
11,589 nM,"N#Cc1cccc(-c2cc3c(cc2-c2ccc(F)cc2F)C(=O)NC3)c1 [Compound 107, 3-(6-(2,4-difluorophenyl)-1-oxoisoindolin-5-yl)benzonitrile]"
12,2350 nM,"Cn1cc2ccc(-c3cc4c(cc3-c3ccc(F)cc3F)C(=O)NC4)cc2n1 [Compound 25, 6-(2,4-difluorophenyl)-5-(2-methyl-2H-indazol-6-yl)isoindolin-1-one]"
13,> 10000 nM,"O=C1NCc2cc(C3=CCOCC3)c(-c3ccc(F)cc3)cc21 [Compound 55, 5-(3,6-dihydro-2H-pyran-4-yl)-6-(4-fluorophenyl)isoindolin-1-one]"
14,> 10000 nM,"O=C1NCc2cc(-c3c[nH]nc3C(F)(F)F)c(-c3ccc(F)cc3F)cc21 [Compound 114, 6-(2,4-difluorophenyl)-5-(3-(trifluoromethyl)-1H-pyrazol-4-yl)isoindolin-1-one]"
15,4330 nM,"O=C1NCc2cc(-c3ccc4cccnc4c3)c(-c3ccc(F)cc3)cc21 [Compound 18, 6-(4-fluorophenyl)-5-(quinolin-7-yl)isoindolin-1-one]"
16,1650 nM,"O=C1NCc2cc(-c3cccnc3)c(-c3ccc(F)cc3F)cc21 [Compound 88, 6-(2,4-difluorophenyl)-5-(pyridin-3-yl)isoindolin-1-one]"
17,> 10000 nM,"Cc1c(-c2cc3c(cc2-c2ccc(F)cc2)C(=O)NC3)cc(C#N)n1C [Compound 53, 4-(6-(4-fluorophenyl)-1-oxoisoindolin-5-yl)-1,5-dimethyl-1H-pyrrole-2-carbonitrile]"
18,> 10000 nM,"CC(=O)Nc1ccc(-c2cc3c(cc2-c2ccc(F)cc2)C(=O)NC3)cn1 [Compound 36, N-(5-(6-(4-fluorophenyl)-1-oxoisoindolin-5-yl)pyridin-2-yl)acetamide]"

row,IC50,SMILES
1,938 nM,"Cc1cc(-c2cc3c(cc2-c2ccc(F)cc2F)C(=O)NC3)c(C)n1C [Compound 97, 6-(2,4-difluorophenyl)-5-(1,2,5-trimethyl-1H-pyrrol-3-yl)isoindolin-1-one]"
2,> 10000 nM,"CC(C)(O)c1ccc(-c2cc3c(cc2-c2ccc(F)cc2)C(=O)NC3)cn1 [Compound 50, 6-(4-fluorophenyl)-5-(6-(2-hydroxypropan-2-yl)pyridin-3-yl)isoindolin-1-one]"
3,1140 nM,"Cc1cc(F)ncc1-c1cc2c(cc1-c1ccc(F)cc1F)C(=O)NC2 [Compound 81, 6-(2,4-difluorophenyl)-5-(6-fluoro-4-methylpyridin-3-yl)isoindolin-1-one]"
4,1090 nM,"Cn1ccc(-c2cc3c(cc2-c2ccc(F)cc2F)C(=O)NC3)n1 [Compound 80, 6-(2,4-difluorophenyl)-5-(1-methyl-1H-pyrazol-3-yl)isoindolin-1-one]"
5,> 10000 nM,"O=C1NCc2cc(-c3cccnc3C3CC3)c(-c3ccc(F)cc3)cc21 [Compound 43, 5-(2-cyclopropylpyridin-3-yl)-6-(4-fluorophenyl)isoindolin-1-one]"
6,> 10000 nM,"Cc1nc2cc(-c3cc4c(cc3-c3ccc(F)cc3)C(=O)NC4)ccc2[nH]1 [Compound 10, 6-(4-fluorophenyl)-5-(2-methyl-1H-benzo[d]imidazol-5-yl)isoindolin-1-one]"
7,1960 nM,"O=C1NCc2cc(-c3cnc4[nH]ccc4c3)c(-c3ccc(F)cc3)cc21 [Compound 38, 6-(4-fluorophenyl)-5-(1H-pyrrolo[2,3-b]pyridin-5-yl)isoindolin-1-one]"
8,1440 nM,"COc1cc(C#N)cc(-c2cc3c(cc2-c2ccc(F)cc2F)C(=O)NC3)c1 [Compound 95, 3-(6-(2,4-difluorophenyl)-1-oxoisoindolin-5-yl)-5-methoxybenzonitrile]"
9,> 10000 nM,"CC1CC(c2cc3c(cc2-c2ccc(F)cc2)C(=O)NC3)=CCN1 (stereo not drawn) [Compound 84, 6-(4-fluorophenyl)-5-(2-methyl-1,2,3,6-tetrahydropyridin-4-yl)isoindolin-1-one]"
10,94 nM,"O=C1NCc2cc(-c3ccc4ocnc4c3)c(-c3ccc(F)cc3)cc21 [Compound 12, 5-(benzo[d]oxazol-5-yl)-6-(4-fluorophenyl)isoindolin-1-one]"
11,999 nM,"O=C1NCc2cc(-c3cccnc3F)c(-c3ccc(F)cc3F)cc21 [Compound 72, 6-(2,4-difluorophenyl)-5-(2-fluoropyridin-3-yl)isoindolin-1-one]"
12,5100 nM,"CN(C)c1ncccc1-c1cc2c(cc1-c1ccc(F)cc1F)C(=O)NC2 [Compound 71, 6-(2,4-difluorophenyl)-5-(2-(dimethylamino)pyridin-3-yl)isoindolin-1-one]"
13,1120 nM,"COc1ncccc1-c1cc2c(cc1-c1ccc(F)cc1F)C(=O)NC2 [Compound 100, 6-(2,4-difluorophenyl)-5-(2-methoxypyridin-3-yl)isoindolin-1-one]"
14,1130 nM,"Cc1c(C#N)cccc1-c1cc2c(cc1-c1ccc(F)cc1F)C(=O)NC2 [Compound 109, 3-(6-(2,4-difluorophenyl)-1-oxoisoindolin-5-yl)-2-methylbenzonitrile]"
15,> 10000 nM,"Cc1ccncc1-c1cc2c(cc1-c1ccc(F)cc1)C(=O)NC2 [Compound 48, 6-(4-fluorophenyl)-5-(4-methylpyridin-3-yl)isoindolin-1-one]"
16,> 10000 nM,"O=C1NCc2cc(C3=CCNCC3)c(-c3ccc(F)cc3)cc21 [Compound 60, 6-(4-fluorophenyl)-5-(1,2,3,6-tetrahydropyridin-4-yl)isoindolin-1-one]"
17,> 10000 nM,"CN(C)c1ncccc1-c1cc2c(cc1-c1ccc(F)cc1)C(=O)NC2 [Compound 39, 5-(2-(dimethylamino)pyridin-3-yl)-6-(4-fluorophenyl)isoindolin-1-one]"
18,> 10000 nM,"O=C1NCc2cc(-c3ccc4ncsc4c3)c(-c3ccc(F)cc3)cc21 [Compound 11, 5-(benzo[d]thiazol-6-yl)-6-(4-fluorophenyl)isoindolin-1-one]"
